One molecule from paper PMC2897950 (Cellular microbiology, 2010) can be followed below.

This assay addresses T1, EhSir2a (EhSir2a-HH) (Entamoeba histolytica, UniProt C4LSH3).
T1 sequence (C4LSH3 1-383): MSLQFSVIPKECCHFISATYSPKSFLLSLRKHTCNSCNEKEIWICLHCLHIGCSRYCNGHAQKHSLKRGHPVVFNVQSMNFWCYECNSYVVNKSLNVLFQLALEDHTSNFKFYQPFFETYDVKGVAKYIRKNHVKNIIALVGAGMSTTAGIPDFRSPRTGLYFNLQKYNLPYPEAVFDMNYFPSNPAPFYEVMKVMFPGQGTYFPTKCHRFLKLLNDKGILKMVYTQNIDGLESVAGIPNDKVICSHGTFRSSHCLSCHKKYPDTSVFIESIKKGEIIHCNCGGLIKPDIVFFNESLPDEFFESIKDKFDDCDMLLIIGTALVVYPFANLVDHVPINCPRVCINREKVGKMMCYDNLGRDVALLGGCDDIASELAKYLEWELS
Put plainly: fluorescent deacetylase assay. In kind it is biochemical. As to conditions: 500 µM NAD+, 37 °C, 2 h; co-substrate of deacetylation.

Take `NC(=O)c1ccc[n+]([C@@H]2O[C@H](COP(=O)(O)OP(=O)(O)OC[C@H]3O[C@@H](n4cnc5c(N)ncnc54)[C@H](O)[C@@H]3O)[C@@H](O)[C@H]2O)c1` [NAD^+]: the “fluorescent deacetylase assay (Biomol kit), enzyme on Ni-NTA beads” value is on record as “EhSir2a showed high levels of deacetylase activity when NAD^+ was added”.
